Where two headings read alike, the source gives them in different places. One block for each compound: values may come before it.
Legend:
[1] = biological target: Kv11.1 (hERG) channel (Homo sapiens (Human), UniProt Q12809); assay: Kv11.1 ion channel binding assay (Predictor hERG fluorescence polarisation); conditions: class symbol marked with asterisk (*)
Protocol: D) Kv11.1 Ion Channel Binding Assay
Kv11.1 (hERG=human ether a go-go related […]) is a cardiac K^+ channel which should if possible not interact with the test substances. This interaction is determined quantitatively with the aid of the Predictor™ hERG Fluorescence Polarizations (FP) Assays from Life Technologies. In the case of this assay principle, cardiomyocyte cell membranes having a certain proportion of Kv11.1 channels are isolated. A dye-labelled Kv11.1 binding partner gives a high fluorescence polarisation signal by interaction with the Kv11.1. In the case of displacement of the dye, a reduction in the fluorescence polarisation signal occurs.
The assay is carried out automatically as follows: 15 nl of the test substances (highest concentration: 10 mM, 10 concentrations: dilution factors 1:3.16, DMSO) are transferred into an empty microtitre plates having 384 wells by means of an acoustic pipetter. 3 μl of the isolated membranes are subsequently added. Membranes and test substances are incubated at 22° C. for 15 min (+/−5 min). In the next step, the dye-labelled binding partner is added, followed by incubation at 22° C. After incubation for two hours, the measurement of the fluorescence polarisation is carried out on an Envision multimode Reader. Measured raw data are standardised with the aid of Genedata Assay Analyzer. The IC50 and % effect values are calculated in Genedata Condoseo.

[2] = tested on: phospho-serine 2056 DNA-PK in HCT116 cells; assay: DNA-PK phosphorylation at serine 2056 (cellular), ELISA in bleomycin-treated HCT116 cells; assay type: cell-based; conditions: read-out: IC50 pDNA-PK
Outline: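 Chemiluminescent ELISA read-out; phospho-specific signal normalised to total DNA-PKcs. Cells (HCT116) exposed 6 h to test compound plus 10 μM bleomycin to induce double-strand breaks; DMSO control served as blank.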

[3] = Homo sapiens, HCT-116, 6 h, cellular, HCT116 cells, 10 μM bleomycin, six hours
[4] = Homo sapiens, HCT-116, phospho-serine 2056 DNA-PK, bleomycin-treated HCT116 cells
[5] = cellular, HCT116 cells, 10 μM bleomycin, six hours
[6] = phospho-serine 2056 DNA-PK, bleomycin-treated HCT116 cells
[7] = Homo sapiens, HCT-116, cellular DNA-PK phosphorylation at serine 2056, HCT116 cells
[8] = Homo sapiens, HCT-116, phospho-serine 2056 DNA-PK, bleomycin-treated HCT116 cells, class symbols A-D

Chain of Kv11.1 (hERG) channel (Q12809 whole entry): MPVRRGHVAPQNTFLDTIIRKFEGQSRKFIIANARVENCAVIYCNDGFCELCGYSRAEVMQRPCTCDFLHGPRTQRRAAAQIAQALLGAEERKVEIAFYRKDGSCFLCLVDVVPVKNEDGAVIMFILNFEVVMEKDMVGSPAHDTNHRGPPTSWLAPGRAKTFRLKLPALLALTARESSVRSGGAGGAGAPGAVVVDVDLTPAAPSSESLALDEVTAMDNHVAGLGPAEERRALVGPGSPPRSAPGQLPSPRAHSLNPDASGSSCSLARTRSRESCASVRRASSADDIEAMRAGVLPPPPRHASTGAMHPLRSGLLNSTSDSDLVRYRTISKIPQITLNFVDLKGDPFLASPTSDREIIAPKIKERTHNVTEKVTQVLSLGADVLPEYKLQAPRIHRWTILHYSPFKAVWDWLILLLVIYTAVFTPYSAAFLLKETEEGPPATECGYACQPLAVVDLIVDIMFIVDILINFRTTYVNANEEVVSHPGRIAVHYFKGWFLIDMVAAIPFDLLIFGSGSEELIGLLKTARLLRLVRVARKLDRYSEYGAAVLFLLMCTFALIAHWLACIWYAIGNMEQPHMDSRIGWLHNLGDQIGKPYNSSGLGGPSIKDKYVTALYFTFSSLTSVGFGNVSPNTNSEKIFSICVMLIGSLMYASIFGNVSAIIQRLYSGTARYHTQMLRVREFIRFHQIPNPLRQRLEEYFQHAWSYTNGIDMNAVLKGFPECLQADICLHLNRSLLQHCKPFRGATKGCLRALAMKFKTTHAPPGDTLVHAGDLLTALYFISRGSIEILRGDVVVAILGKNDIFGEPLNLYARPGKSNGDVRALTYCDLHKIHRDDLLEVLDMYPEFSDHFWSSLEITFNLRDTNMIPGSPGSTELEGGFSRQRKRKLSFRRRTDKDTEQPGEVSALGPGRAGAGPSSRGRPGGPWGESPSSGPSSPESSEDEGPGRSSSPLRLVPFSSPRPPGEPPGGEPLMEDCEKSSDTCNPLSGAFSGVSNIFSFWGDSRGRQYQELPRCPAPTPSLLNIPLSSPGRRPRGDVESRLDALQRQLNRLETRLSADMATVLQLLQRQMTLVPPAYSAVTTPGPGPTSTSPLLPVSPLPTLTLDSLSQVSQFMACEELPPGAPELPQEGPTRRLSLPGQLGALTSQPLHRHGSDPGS

Structure (SMILES): COc1nccnc1C(O)c1ccc(F)c(-c2ncnc3cc(N4CCOCC4)cc(F)c23)c1 (single isomer, unassigned) [Example 253, [4-Fluoro-3-(5-fluoro-7-morpholin-4-yl-quinazolin-4-yl)-phenyl]-(3-methoxy-pyrazin-2-yl)-methanol]
Ki [Kv1.11 hERG] [1]: A*

Structure (SMILES): COc1ccc(C(O)c2cc(-c3ncnc4cc(N5CCOCC5)cc(F)c34)c(F)cc2Cl)nn1 (single isomer, unassigned) [Example 263, [2-Chloro-4-fluoro-5-(5-fluoro-7-morpholin-4-yl-quinazolin-4-yl)-phenyl]-(6-methoxy-pyridazin-3-yl)-methanol]
Ki [Kv1.11 hERG] [1]: A*

Structure (SMILES): COC(c1ccc(F)c(-c2ncnc3cc(N4CCOCC4)ccc23)c1)c1nccnc1C (stereo not drawn) [Example 352]
Ki [Kv1.11 hERG] [1]: A*

Structure (SMILES): Cc1nccnc1/C(C(=O)O)=C1/C=CC(=O)C(c2ncnc3cc(N4CCOCC4)ccc23)=C1 [Example 331, (3-methyl-pyrazin-2-yl)-[3-(7-morpholin-4-ylquinazolin-4-yl)-4-oxocyclohexa-2,5-dien-(E)-ylidene]-acetic acid]
IC50 [2, 4]: 5 to 10 µM

Structure (SMILES): Cc1cncnc1C(C(N)=O)c1cc(-c2ncnc3cc(N4CCOCC4)ccc23)ccc1Cl (stereo not drawn) [Example 377, 2-[2-Chloro-5-(7-morpholin-4-yl-quinazolin-4-yl)-phenyl]-2-(5-methyl-pyrimidin-4-yl)-acetamide (Ena 2)]
IC50 [2, 7]: 0.5 to 5 µM

Structure (SMILES): OC(c1cccc(-c2ncnc3cc(N4CCOCC4)ccc23)c1)(c1nccs1)C(F)(F)F (stereo not drawn) [Example 172, 2,2,2-Trifluoro-1-[3-(7-morpholin-4-yl-quinazolin-4-yl)-phenyl]-1-thiazol-2-ylethanol]
IC50 [2, 8]: 10 to 30 µM

Structure (SMILES): COC(c1ccc(F)c(-c2ncnc3cc(N4CCOCC4)ccc23)c1)c1nccs1 (stereo not drawn) [Example 177, 4-[2-Fluoro-5-(-methoxythiazol-2-ylmethyl)phenyl]-7-morpholin-4-yl-quinazoline]
IC50 [2, 8]: 10 to 30 µM

Structure (SMILES): Cc1cncnc1C(O)c1cc(-c2ncnc3cc(N4CCOCC4)ccc23)ccc1Cl (stereo not drawn) [Example 418, [2-Chloro-5-(7-morpholin-4-yl-quinazolin-4-yl)-phenyl]-(5-methyl-pyrimidin-4-yl)-methanol (Ena 1)]
IC50 ([2]; cellular DNA-PK phosphorylation at serine 2056, HCT116 cells): 0.5 to 5 µM

Structure (SMILES): CC(O)(c1ccc(F)c(-c2ncnc3cc(N4CCOCC4)ccc23)c1)c1nccs1 (stereo not drawn) [Example 163, 1-[4-Fluoro-3-(7-morpholin-4-yl-quinazolin-4-yl)-phenyl]-1-thiazol-2-ylethanol]
IC50 [2, 8]: 10 to 30 µM

Structure (SMILES): [2H]C1([2H])OC([2H])([2H])C([2H])([2H])N(c2ccc3c(-c4cc(C(O)c5ccc(OC)nn5)c(Cl)cc4F)ncnc3c2)C1([2H])[2H] (stereo not drawn) [Example 244, [2-Chloro-4-fluoro-5-[7-(2,2,3,3,5,5,6,6-octadeuterio-morpholin-4-yl)quinazolin-4-yl]phenyl]-(6-methoxypyridazin-3-yl)methanol]
IC50 [2, 6]: < 0.5 µM

Structure (SMILES): COc1ccc(C(C(N)=O)c2cc(-c3ncnc4cc(N5CCOCC5)ccc34)c(F)cc2F)nn1 (stereo not drawn) [Example 306, 2-[2,4-Difluoro-5-(7-morpholin-4-yl-quinazolin-4-yl)-phenyl]-2-(6-methoxy-pyridazin-3-yl)acetamide]
IC50 [2, 4]: 10 to 30 µM

Structure (SMILES): NC(=O)C(c1cncc(Cl)c1)c1ccc(F)c(-c2ncnc3cc(N4CCOCC4)ccc23)c1 (stereo not drawn) [Example 297, 2-(5-Chloro-pyridin-3-yl)-2-[4-fluoro-3-(7-morpholin-4-yl-quinazolin-4-yl)-phenyl]acetamide]
IC50 [2, 4]: 10 to 30 µM

Structure (SMILES): Cc1nccnc1C(O)c1ccc(F)c(-c2ncnc3cc(N4CCOCC4)cnc23)c1 (stereo not drawn) [Example 237, [4-Fluoro-3-(7-morpholin-4-yl-pyrido[3,2-d}-pyrimidin-4-yl)-phenyl]-(3-methyl-pyrazin-2-yl)-methanol]
IC50 [2, 4]: < 0.5 µM

Structure (SMILES): OC(c1ccc(F)c(-c2ncnc3cc(N4CCOCC4)sc23)c1)c1nccs1 (racemic) [Example 144, [4-Fluoro-3-(6-morpholin-4-yl-thieno[3,2-d}-pyrimidin-4-yl)-phenyl]thiazol-2-yl-methanol]
IC50 [2, 8]: 0.5 to 5 µM

Structure (SMILES): Cc1cncnc1C(O)c1cc(-c2ncnc3cc(N4CCOCC4)ccc23)ccc1Cl (stereo not drawn) [Example 417, [2-Chloro-5-(7-morpholin-4-yl-quinazolin-4-yl)-phenyl]-(5-methyl-pyrimidin-4-yl)-methanol (Ena 2)]
IC50 [2, 7]: 0.5 to 5 µM

Other lines, results leading:

IC50 [2, 3]: < 0.5 µM
Structure (SMILES): COc1cc(Cl)nnc1C(O)c1ccc(F)c(-c2ncnc3cc(N4CCOCC4)ccc23)c1 (stereo not drawn) [Example 10, (6-Chloro-4-methoxy-pyridazin-3-yl)-[4-fluoro-3-(7-morpholin-4-yl-quinazolin-4-yl)phenyl]-methanol]

IC50 [2, 4]: < 0.5 µM
Structure (SMILES): OC(c1cc(-c2ncnc3cc(N4CCOCC4)ccc23)c(F)cc1F)c1nncc2ccoc12 (stereo not drawn) [Example 336, [2,4-Difluoro-5-(7-morpholin-4-yl-quinazolin-4-yl)-phenyl]furo[2,3-d}-pyridazin-7-yl-methanol]

IC50 [2, 5]: < 0.5 µM
Structure (SMILES): OC(c1ccc2nccn2n1)c1cc(-c2ncnc3cc(N4CCOCC4)ccc23)c(F)cc1Cl (stereo not drawn) [Example 57, [2-Chloro-4-fluoro-5-(7-morpholin-4-yl-quinazolin-4-yl)phenyl]-imidazo[1,2-b]pyridazin-6-ylmethanol]

IC50 [2, 3]: 10 to 30 µM
Structure (SMILES): O=C(O)c1ccc(C(O)c2cc(-c3ncnc4cc(N5CCOCC5)ccc34)c(F)cc2Cl)nn1 (stereo not drawn) [Example 55, 6-{[2-Chloro-4-fluoro-5-(7-morpholin-4-yl-quinazolin-4-yl)phenyl]-hydroxymethyl}-pyridazine-3-carboxylic acid]

IC50 [2, 3]: 0.5 to 5 µM
Structure (SMILES): NC(=O)c1ccc(C(O)c2cc(-c3ncnc4cc(N5CCOCC5)ccc34)c(F)cc2Cl)nn1 (stereo not drawn) [Example 62, 6-{[2-Chloro-4-fluoro-5-(7-morpholin-4-yl-quinazolin-4-yl)phenyl]-hydroxymethyl}-pyridazine-3-carboxylic acid amide]

IC50 [2, 6]: 0.5 to 5 µM
Structure (SMILES): Cn1cnc2c(C(O)c3cc(-c4ncnc5cc(N6CCOCC6)ccc45)c(F)cc3F)ncnc21 (stereo not drawn) [Example 347, [2,4-Difluoro-5-(7-morpholin-4-yl-quinazolin-4-yl)-phenyl]-(9-methyl-9H-purin-6-yl)-methanol (Ena 1)]

IC50 [2, 4]: 0.5 to 5 µM
Structure (SMILES): COc1nccnc1C(C(N)=O)c1cc(-c2ncnc3cc(N4CCOCC4)ccc23)c(F)cc1Cl (stereo not drawn) [Example 320, 2-[2-Chloro-4-fluoro-5-(7-morpholin-4-yl-quinazolin-4-yl)-phenyl]-2-(3-methoxy-pyrazin-2-yl)acetamide]

IC50 [2, 4]: 0.5 to 5 µM
Structure (SMILES): Cc1cnc(C(C(N)=O)c2cc(-c3ncnc4cc(N5CCOCC5)ccc34)c(F)cc2Cl)c(C)n1 (stereo not drawn) [Example 301, 2-[2-Chloro-4-fluoro-5-(7-morpholin-4-yl-quinazolin-4-yl)-phenyl]-2-(3,5-dimethyl-pyrazin-2-yl)acetamide]

IC50 [2, 7]: 5 to 10 µM
Structure (SMILES): Cn1c(C(O)c2cc(-c3ncnc4cc(N5CCOCC5)ccc34)c(F)cc2Cl)nccc1=O (stereo not drawn) [Example 368, 2-{[2-Chloro-4-fluoro-5-(7-morpholin-4-yl-quinazolin-4-yl)-phenyl]hydroxy-methyl}-3-methyl-3H-pyrimidin-4-one]

IC50 [2, 3]: 5 to 10 µM
Structure (SMILES): Cc1cnnc(C(O)c2cc(-c3ncnc4cc(N5CCOCC5)ccc34)c(F)cc2Cl)c1 (stereo not drawn) [Example 46, [2-Chloro-4-fluoro-5-(7-morpholin-4-yl-quinazolin-4-yl)phenyl]-(5-methylpyridazin-3-yl)methanol]

IC50 [2, 8]: 10 to 30 µM
Structure (SMILES): COC(=O)COc1ccc(C(O)c2cc(-c3ncnc4cc(N5CCOCC5)ccc34)c(F)cc2Cl)nn1 (stereo not drawn) [Example 114, (6-{[2-Chloro-4-fluoro-5-(7-morpholin-4-yl-quinazolin-4-yl)-phenyl]hydroxy-methyl}pyridazin-3-yl-oxy)acetic acid methyl ester]

IC50 [2, 3]: 10 to 30 µM
Structure (SMILES): O=c1[nH]ccnc1C(O)c1ccc(F)c(-c2ncnc3cc(N4CCOCC4)ccc23)c1 (stereo not drawn) [Example 5, 3-{[4-Fluoro-3-(7-morpholin-4-yl-quinazolin-4-yl)phenyl]-hydroxymethyl}-1H-pyrazin-2-one]

IC50 [2, 7]: 0.5 to 5 µM
Structure (SMILES): OC(c1cc(-c2ncnc3cc(N4CCOCC4)ccc23)c(F)cc1F)c1nnc2ccccn12 (stereo not drawn) [Example 379, [2,4-Difluoro-5-(7-morpholin-4-yl-quinazolin-4-yl)-phenyl]-[1,2,4]-triazolo[4,3-a]pyridin-3-ylmethanol]

IC50 [2, 8]: 0.5 to 5 µM
Structure (SMILES): COc1nnc(C(O)c2cc(-c3ncnc4cc(N5CCOCC5)ccc34)c(F)cc2Cl)cc1C (stereo not drawn) [Example 110, [2-Chloro-4-fluoro-5-(7-morpholin-4-yl-quinazolin-4-yl)-phenyl]-(6-methoxy-5-methylpyridazin-3-yl)methanol]

IC50 [2, 5]: < 0.5 µM
Structure (SMILES): OC(c1ccc2nccn2n1)c1cc(-c2ncnc3cc(N4CCOCC4)ccc23)c(F)cc1F (stereo not drawn) [Example 21, [2,4-Difluoro-5-(7-morpholin-4-yl-quinazolin-4-yl)phenyl]-imidazo[1,2-b]pyridazin-6-ylmethanol]

Source: US11065253B2, “Arylquinazolines” (Merck Patent GmbH, priority 2013, dated 2021)
